# Legend:
# [1] = target: T1, Hell's Gate globin-I (HGb-I) (Candidatus Methylacidiphilum infernorum, UniProt B3DUZ7); assay: optical (absorbance) titration of ferric protein at pH […] °C; type: binding
# T1 construct: gene hmp
# T1 sequence (B3DUZ7 1-133): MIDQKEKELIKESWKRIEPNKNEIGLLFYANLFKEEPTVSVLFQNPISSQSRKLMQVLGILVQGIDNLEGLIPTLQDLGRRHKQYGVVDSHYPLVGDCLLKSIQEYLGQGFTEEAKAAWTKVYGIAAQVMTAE
# [2] = target: T1, Hell's Gate globin-I (HGb-I); assay: stopped-flow CO binding kinetics; optical spectrum of ferrous-CO form
# [3] = target: T1, Hell's Gate globin-I (HGb-I); assay: optical (absorbance) titration of ferric protein at pH […] °C; supported by EPR and stopped flow; type: binding
smiles,measurement,setting,value
CCCCCCCCCCCCCCCC(=O)O [palmitate],Kd,[1],9.88 µM
[C-]#[O+] [carbon monoxide],stopped-flow CO binding kinetics; optical spectrum of ferrous-CO form,[2],"In the absence of oleate, the CO binding to the hexacoordinate form is slow and reaches a plateau"
CCCCCCCC/C=C\CCCCCCCC(=O)O [oleate],Kd,[3],730 nM

# Source: article PMC11203436, “Hell’s Gate Globin-I from Methylacidiphilum infernorum Displays a Unique Temperature-Independent pH Sensing Mechanism Utililized a Lipid-Induced Conformational Change” (International Journal of Molecular Sciences, 2024)
